With `CCC(CCCN1CCC(NC(=O)c2ccccc2-c2ccc(C(F)(F)F)cc2)CC1)(CC(=O)OC)c1ccccc1` (stereo not shown) [Example 2, Methyl 2-ethyl-2-phenyl-5-{4-[(4′-trifluoromethyl-biphenyl-2-carbonyl)-amino]-piperidin-1-yl}-pentanecarboxylate] the melting point was 110 °C.
